Tests used:
Aβ1-42 = test: Measurement of Aβ1-42 in culture medium of 7W WT APP751 CHO cells by ELISA; format: cell-based, Chinese hamster; conditions: for Aβ1-42 (% of control): CHO cells that overexpress APP751, zero = below the detection limit of the assay; for activity at 5 µM: Cricetulus griseus, Table 1, 5 μM test compound, CHO cells stably transfected with human APP751, culture medium, ELISA, control DMSO, 0 = no detectable amount, read-out: Aβ1-42 (% of control)
Procedure: (§1) Chinese hamster ovary (CHO) cells, stably transfected with human APP751 (7W WT APP751 CHO cells) were used. See, e.g., Koo and Squazzo, J. Biol. Chem., 269(26): 17386-17389, 1994. The cells were maintained in DMEM medium supplemented with 10% fetal bovine serum and 1× mixture of penicillin/streptomycin/fungizone/glutamine mixture (Cambrex, Md.) geneticin as selecting agent in 75 cm^2 cell culture flasks. The 7W WT APP751 CHO cells were plated in 96-well cell culture plates in quadruplicate, containing 200 microliters of culture medium, for 18 hours at 37° C. and 5% CO2. All test compounds were placed in dimethyl sulfoxide (DMSO) before being added to the cultured confluent 7W WT APP751 CHO cells to a concentration of the test compound of 5 μM. The culture medium was collected and diluted before being assayed by ELISAs for Aβ1-40 at 10-fold dilution and Aβ1-42 at 2-fold dilution, respectively. Concentrations of Aβ1-40 and Aβ1-42, expressed in pg/ml, were determined using commercially available ELISAs (Biosource, Calif.) in a colorimetric assay using labeled antibodies detected spectrophotometrically. For compounds with an identification beginning “RI”, the compounds were tested at a concentration of 10 μM for 24 hours. Control cells were treated with DMSO containing no compound. The percentage reduction in levels of Aβ1-40 and Aβ1-42 as compared to control cells not exposed to the test compounds are reported for the compounds in Tables 1, 2, and 3, supra. An entry of “0” indicates no detectable amount of Aβ1-40 or Aβ1-42 according to the assay conditions. The data in Tables 1, 2, and 3 may be rounded to the nearest 0.1%.

Aβ1-40 = test: Measurement of Aβ1-40 in culture medium of 7W WT APP751 CHO cells by ELISA; format: cell-based, Chinese hamster; conditions: for Aβ1-40 (% of control): CHO cells that overexpress APP751, zero = below the detection limit of the assay; for activity at 5 µM: Cricetulus griseus, Table 1, 5 μM test compound, CHO cells stably transfected with human APP751, culture medium, ELISA, control DMSO, 0 = no detectable amount
Procedure: as §1
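Further: 5 µM test compound but RI-coded compounds at 10 µM for 24 hours.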

Compound	Aβ1-42 (% of control) (Aβ1-42)	Aβ1-40 (% of control) (Aβ1-40)	activity at 5 µM (Aβ1-42)	activity at 5 µM (Aβ1-40)
CCOc1ccc(/C=c2\sc3n(c2=O)C(N)=C(C#N)C(c2ccc(OCC)c(OC)c2)C=3C#N)cc1OC (centres unmarked) [ST025022, 5-amino-7-(4-ethoxy-3-methoxyphenyl)-2-[(4-ethoxy-3-methoxyphenyl)methylene]-3-oxo-4,7-dihydro-1,3-thiazolidino[3,2-a]pyridine-6,8-dicarbonitrile]	76.11 % of control	61.31 % of control		
CCOc1cc(/C=c2\sc3n(c2=O)C(N)=C(C#N)C(c2ccc(OCC(N)=O)c(OCC)c2)C=3C#N)ccc1OCC(N)=O (centres unmarked) [ST025037, 2-[4-(5-amino-2-{[4-(carbamoylmethoxy)-3-ethoxyphenyl]methylene}-6,8-dicyano-3-oxo(4,7-dihydro-1,3-thiazolidino[3,2-a]pyridin-7-yl))-2-ethoxyphenoxy]acetamide]	67.1 % of control	80.02 % of control		
CCn1c2ccccc2c2cc(C3C(C(=O)OC4CCCC4)=C(C)NC4=C3C(=O)CC(C)(C)C4)ccc21 (centres unmarked) [ST052173, cyclopentyl 4-(9-ethylcarbazol-3-yl)-2,7,7-trimethyl-5-oxo-1,4,6,7,8-pentahydroquinoline-3-carboxylate]			32.5%	64.7%
CCCOc1ccccc1C1C(C(=O)OCc2ccccc2)=C(C)NC2=C1C(=O)CCC2 (centres unmarked) [ST014957, phenylmethyl 2-methyl-5-oxo-4-(2-propoxyphenyl)-1,4,6,7,8-pentahydroquinoline-3-carboxylate]			62.8%	0%
CC1=C(C(=O)Nc2ccc(Cl)cc2)C(c2cccs2)C(C#N)=C(SCC(=O)Nc2ccc(C)c(Cl)c2)N1 (centres unmarked) [RI_60]	71.1 % of control	59.4 % of control		
CCCCOC(=O)C1=C(C)NC2=C(C(=O)CCC2)C1c1ccccc1OCCC (centres unmarked) [ST013325, butyl 2-methyl-5-oxo-4-(2-propoxyphenyl)-1,4,6,7,8-pentahydroquinoline-3-carboxylate]			69.4%	28.5%
N#CC1=C(N)NC(SCC(N)=O)=C(C#N)C1c1ccc(Cl)cc1 (centres unmarked) [RI_3]	51.2 % of control	97.4 % of control		
CCOC(=O)C1=C(C)NC(C)=C(C(=O)OCC)C1c1c(Cl)cccc1Cl [ST211423, ethyl 4-(2,6-dichlorophenyl)-5-(ethoxycarbonyl)-2,6-dimethyl-1,4-dihydropyridine-3-carboxylate]	0 % of control	2.731 % of control		
COc1cc(C2C(C(=O)OC3CCCCC3)=C(C)NC3=C2C(=O)CC(c2ccccc2)C3)ccc1O (centres unmarked) [ST013387, cyclohexyl 4-(4-hydroxy-3-methoxyphenyl)-2-methyl-5-oxo-7-phenyl-1,4,6,7,8-pentahydroquinoline-3-carboxylate]			26.4%	40%
COCCOC(=O)C1=C(C)NC2=C(C(=O)CC(c3ccc(OC)cc3)C2)C1c1ccc(Br)cc1 (centres unmarked) [ST017099, 2-methoxyethyl 4-(4-bromophenyl)-7-(4-methoxyphenyl)-2-methyl-5-oxo-1,4,6,7,8-pentahydroquinoline-3-carboxylate]			57%	84.5%
COc1ccc(NC(=O)CSC2=C(C#N)C(c3ccsc3)C(C(=O)Nc3ccccc3)=C(C)N2)cc1 (centres unmarked) [RI_59]	30.6 % of control	27.7 % of control		
CCOC(=O)C1=C(C)N(c2nonc2NC(C)=O)C(N)=C(C#N)C1c1ccc(Cl)cc1Cl (centres unmarked) [ST026470, ethyl 1-[4-(acetylamino)(1,2,5-oxadiazol-3-yl)]-6-amino-4-(2,4-dichlorophenyl)-5-cyano-2-methyl-1,4-dihydropyridine-3-carboxylate]	67.48 % of control	81.7 % of control		
N#CC1=C(N)n2c(s/c(=C\c3cccc(Br)c3)c2=O)=C(C#N)C1c1cccc(Br)c1 (centres unmarked) [RI_96]	70.5 % of control	71.3 % of control		
CCN(CC)c1ccc(C2C(C(=O)OCCOC)=C(C)NC3=C2C(=O)CCC3)cc1 (centres unmarked) [ST013256, 2-methoxyethyl 4-[4-(diethylamino)phenyl]-2-methyl-5-oxo-1,4,6,7,8-pentahydroquinoline-3-carboxylate]			92.8%	60.2%
CC(=O)C1=C(C)NC(SCC(=O)Nc2c(C)cc(Br)cc2Br)=C(C#N)C1c1cc(C)cs1 (centres unmarked) [ST048506, 2-[5-acetyl-3-cyano-6-methyl-4-(4-methyl(2-thienyl))(2-1,4-dihydropyridylthio)]-N-(2,4-dibromo-6-methylphenyl)acetamide]	65.58 % of control	91.16 % of control		
CC1=C(C(=O)OC2CCCC2)C(c2cccs2)C2=C(CCCC2=O)N1 (centres unmarked) [ST017171, cyclopentyl 2-methyl-5-oxo-4-(2-thienyl)-1,4,6,7,8-pentahydroquinoline-3-carboxylate]			63.4%	62.5%
CCOC(=O)C1=C(C)NC2=C(C(=O)CC(c3ccccc3)C2)C1c1ccccn1 (centres unmarked) [ST017251, ethyl 2-methyl-5-oxo-7-phenyl-4-(2-pyridyl)-1,4,6,7,8-pentahydroquinoline-3-carboxylate]			34.3%	90.4%
COC(=O)C1=C(C)NC2=C(C(=O)CCC2)C1c1cc(Br)c(O)c(OC)c1 (centres unmarked) [ST013141, methyl 4-(3-bromo-4-hydroxy-5-methoxyphenyl)-2-methyl-5-oxo-1,4,6,7,8-pentahydroquinoline-3-carboxylate]			23.7%	89.7%
COC(=O)C1=CN(Cc2ccc(OC)c(OC)c2)C=C(C(=O)OC)C1c1ccc(OC)c(OC)c1 [ST038162, methyl 4-(3,4-dimethoxyphenyl)-1-[(3,4-dimethoxyphenyl)methyl]-5-(methoxycarbonyl)-1,4-dihydropyridine-3-carboxylate]	58.62 % of control	49.65 % of control		
CC1=C(C(=O)OCCc2ccccc2)C(c2ccc([N+](=O)[O-])cc2)C2=C(CC(c3ccccc3)CC2=O)N1 (centres unmarked) [ST015255, 2-phenylethyl 2-methyl-4-(4-nitrophenyl)-5-oxo-7-phenyl-1,4,6,7,8-pentahydroquinoline-3-carboxylate]			74.7%	40.5%
CC1=C(C(=O)Nc2ccccc2)C(c2cccs2)C(C#N)=C(SCC(=O)NCc2ccccc2)N1 (centres unmarked) [RI_22]	47.6 % of control	60.9 % of control		
COC(=O)C1=CN(Cc2ccc(OC)c(OC)c2)C=C(C(=O)OC)C1c1cccs1 [ST038115, methyl 1-[(3,4-dimethoxyphenyl)methyl]-5-(methoxycarbonyl)-4-(2-thienyl)-1,4-d ihydropyridine-3-carboxylate]	91 % of control	42.45 % of control		
CCCOC(=O)C1=C(C)NC2=C(C(=O)CCC2)C1c1cc(Br)ccc1OC (centres unmarked) [ST052364, propyl 4-(5-bromo-2-methoxyphenyl)-2-methyl-5-oxo-1,4,6,7,8-pentahydroquinoline-3-carboxylate]			13.5%	27%
CCOc1cc(C2C(C(=O)OCCc3ccccc3)=C(C)NC3=C2C(=O)CCC3)cc(Br)c1O (centres unmarked) [ST015061, 2-phenylethyl 4-(3-bromo-5-ethoxy-4-hydroxyphenyl)-2-methyl-5-oxo-1,4,6,7,8-pentahydroquinoline-3-carboxylate]			33.5%	40.8%
COc1ccc(COC(=O)C2=C(C)NC3=C(C(=O)CCC3)C2c2cccs2)cc1 (centres unmarked) [ST052371, (4-methoxyphenyl)methyl 2-methyl-5-oxo-4-(2-thienyl)-1,4,6,7,8-pentahydroquinoline-3-carboxylate]			92.5%	59.8%
N#CC1=C(N)n2c(s/c(=C\c3cc(Br)ccc3O)c2=O)=C(C#N)C1c1cc(Br)ccc1O (centres unmarked) [ST025030, 5-amino-7-(5-bromo-2-hydroxyphenyl)-2-[(5-bromo-2-hydroxyphenyl)methylene]-3-oxo-4,7-dihydro-1,3-thiazolidino[3,2-a]pyridine-6,8-dicarbonitrile]	33.93 % of control	39.29 % of control		
COC(=O)C1=CN(CC2CCCO2)C=C(C(=O)OC)C1c1cccc(Br)c1 (centres unmarked) [ST051569, methyl 4-(3-bromophenyl)-5-(methoxycarbonyl)-1-(oxolan-2-ylmethyl)-1,4-dihydropyridine-3-carboxylate]	72.77 % of control	49.02 % of control		
COc1ccc(COC(=O)C2=C(C)NC3=C(C(=O)CCC3)C2c2ccc(Cl)cc2)cc1 (centres unmarked) [ST018648, (4-methoxyphenyl)methyl 4-(4-chlorophenyl)-2-methyl-5-oxo-1,4,6,7,8-pentahydroquinoline-3-carboxylate]			11%	7.49%

— patent US20100119599A1 (ARCHER PHARMACEUTICALS, INC., priority 2006, published 2010)
